In patent US5300491A, “Treatment of protozoal infection” (priority 1992, dated 1994):
Where two headings read alike, the source gives them in different places.

Tested on: Entamoeba histolytica
Format: cell-based
Text: E. histolytica isolates representing three distinct zymodemes (I, II or XIV) were derived from a range of geographical locations. The patients from whom the isolates were obtained were either pathogenic (i.e. presented dysentery), or non-pathogenic (i.e., presented a non-dysenteric stage of infection characterized by passing of cysts or trophozoites). The following table identifies the E. histolytica isolates in accordance with the above criteria:
Each isolate was a xenic culture, i.e., it contained, in addition to the E. histolytica amoeba, the normally occurring patient faecal microflora. The cultures were maintained according to the method of Robinson, Trans. Roy. Soc. Trop. Med. Hyg. 62, 285-94, (1968). Bacitracin (70 I.U./mg) and its zinc salt (65 I.U./mg) were obtained from Apothekernes Laboratorium A.S (Oslo, Norway). Following microtitre-assay standardization and pilot testing of the drugs (results not presented), the following assay procedure was established. Bacitracin was screened over the range of 20.0-0.625 mg/ml by doubling dilution. 30 mg/ml bacitracin was also examined. […] The remaining wells were run as controls. An initial stock solution of 75 mg/ml bacitracin was prepared in starch-free Robinson medium (SFRM) . Subsequent to loading the first set of wells, the stock was diluted with SFRM to 50 mg/ml, which was used to prepare the remaining concentrations. […] 100 μl volumes of both drugs were then double-diluted in SFRM to provide 2.5X concentrates of the required final concentrations in the microtitre plates. 50 μl of a 25 mg% starch (BDH) solution (in SFRM) was then added to each well. 16-18 hours before the end of the required 48-hour culture period, the amoeba isolates were passaged to fresh tubes containing starch-free Robinson medium. At the end of the culture period, the amoebae were harvested in a small volume of medium and resuspended in at least 20 volumes SFRM. The suspensions were centrifuged at 1000 rpm for 5 minutes prior to re-suspension in fresh medium and counted in a modified Neubauer chamber. Amoebae were centrifuged as before and the pellet resuspended to a concentration of 2.5×10^4 /ml SFRM. 100 μl aliquots were then pipetted into respective wells to provide duplicate cultures of each isolate for each concentration assayed. The plates were then placed in an anaerobic chamber (HP11, Oxoid) at 37° C. for 24 hours. While this procedure provided sufficient starch for the amoebae, the concentration was such that at 24 hours the plates were easily read and quantitified by direct observation using an inverted microscope. Viability was assessed by the addition of Trypan blue to a final concentration of 0.1%.
Readings from each of the studies were collected and stored until all three experiments were completed in order to reduce any bias in subsequent readings. Minimun inhibitory and minimum lethal concentrations were given in mg/ml. […]

[1] = span over all xenic isolates and studies
[2] = xenic isolate 70k, Experiment 1
[3] = xenic isolate 70k, Experiment 2
[4] = xenic isolate 70k, Experiment 3
[5] = xenic isolate 116k, Experiment 1
[6] = xenic isolate 116k, Experiment 2
[7] = xenic isolate 116k, Experiment 3
[8] = xenic isolate 418, Experiment 1
[9] = xenic isolate 418, Experiment 2
[10] = xenic isolate 418, Experiment 3
[11] = xenic isolate 1246, Experiment 1
[12] = xenic isolate 1246, Experiment 2
[13] = xenic isolate 1246, Experiment 3
[14] = xenic isolate AiDO, Experiment 1
[15] = xenic isolate AiDO, Experiment 2
[16] = xenic isolate AiDO, Experiment 3
[17] = xenic isolate BiLO, Experiment 1
[18] = xenic isolate BiLO, Experiment 3
[19] = xenic isolate DOGO, Experiment 1
[20] = xenic isolate DOGO, Experiment 2
[21] = xenic isolate DOGO, Experiment 3
[22] = xenic isolate OMAk, Experiment 1
[23] = xenic isolate OMAk, Experiment 3
[24] = xenic isolate Sh2, Experiment 1
[25] = xenic isolate Sh2, Experiment 2
[26] = xenic isolate Sh2, Experiment 3
[27] = xenic isolate T2k, Experiment 1
[28] = xenic isolate T2k, Experiment 2
[29] = xenic isolate T2k, Experiment 3
[30] = xenic isolate URU1, Experiment 1
[31] = xenic isolate URU1, Experiment 2
[32] = xenic isolate URU1, Experiment 3
[33] = xenic isolate URU19, Experiment 1
[34] = xenic isolate URU19, Experiment 3

Substance: Zinc bacitracin
- concentration at which precipitation occurred (in the xenic culture assay medium): ≥ 5000 µg/mL
- MICs [1]: 0.16 to 1.25 mg/mL
- MLCs [1]: 1.25 to 5.0 mg/mL
- Minimum Lethal Concentration (MLC) (xenic Isolate 1, single study over a narrower range of drug concentration (Table 4)): 1600 µg/mL
- Minimum Lethal Concentration (MLC) (xenic Isolate C1, single study over a narrower range of drug concentration (Table 4)): 1400 µg/mL
- Minimum Inhibitory Concentration (MIC) (xenic isolate 1, Experiment 1): 630 µg/mL
- Minimum Lethal Concentration (MLC) (xenic isolate 1, Experiment 1): 2500 µg/mL
- Minimum Inhibitory Concentration (MIC) (xenic isolate 1, Experiment 2): 1250 µg/mL
- Minimum Lethal Concentration (MLC) (xenic isolate 1, Experiment 2): 2500 µg/mL
- Minimum Inhibitory Concentration (MIC) (xenic isolate 1, Experiment 3): 310 µg/mL
- Minimum Lethal Concentration (MLC) (xenic isolate 1, Experiment 3): 2500 µg/mL
- Minimum Inhibitory Concentration (MIC) [2]: 630 µg/mL
- Minimum Lethal Concentration (MLC) [2]: 2500 µg/mL
- Minimum Inhibitory Concentration (MIC) [3]: 630 µg/mL
- Minimum Lethal Concentration (MLC) [3]: 2500 µg/mL
- Minimum Inhibitory Concentration (MIC) [4]: 630 µg/mL
- Minimum Lethal Concentration (MLC) [4]: 2500 µg/mL
- Minimum Inhibitory Concentration (MIC) [5]: 630 µg/mL
- Minimum Lethal Concentration (MLC) [5]: 2500 µg/mL
- Minimum Inhibitory Concentration (MIC) [6]: 310 µg/mL
- Minimum Lethal Concentration (MLC) [6]: 1250 µg/mL
- Minimum Inhibitory Concentration (MIC) [7]: 310 µg/mL
- Minimum Lethal Concentration (MLC) [7]: 2500 µg/mL
- Minimum Inhibitory Concentration (MIC) [8]: 630 µg/mL
- Minimum Lethal Concentration (MLC) [8]: 5000 µg/mL
- Minimum Inhibitory Concentration (MIC) [9]: 310 µg/mL
- Minimum Lethal Concentration (MLC) [9]: 2500 µg/mL
- Minimum Inhibitory Concentration (MIC) [10]: 310 µg/mL
- Minimum Lethal Concentration (MLC) [10]: 2500 µg/mL
- Minimum Inhibitory Concentration (MIC) [11]: 160 µg/mL
- Minimum Lethal Concentration (MLC) [11]: 2500 µg/mL
- Minimum Inhibitory Concentration (MIC) [12]: 630 µg/mL
- Minimum Lethal Concentration (MLC) [12]: 2500 µg/mL
- Minimum Inhibitory Concentration (MIC) [13]: 310 µg/mL
- Minimum Lethal Concentration (MLC) [13]: 1250 µg/mL
- Minimum Inhibitory Concentration (MIC) [14]: 630 µg/mL
- Minimum Lethal Concentration (MLC) [14]: 2500 µg/mL
- Minimum Inhibitory Concentration (MIC) [15]: 160 µg/mL
- Minimum Lethal Concentration (MLC) [15]: 2500 µg/mL
- Minimum Inhibitory Concentration (MIC) [16]: 160 µg/mL
- Minimum Lethal Concentration (MLC) [16]: 2500 µg/mL
- Minimum Inhibitory Concentration (MIC) [17]: 310 µg/mL
- Minimum Lethal Concentration (MLC) [17]: 2500 µg/mL
- Minimum Inhibitory Concentration (MIC) [18]: 310 µg/mL
- Minimum Lethal Concentration (MLC) [18]: 2500 µg/mL
- Minimum Inhibitory Concentration (MIC) (xenic isolate C1, Experiment 1): 1250 µg/mL
- Minimum Lethal Concentration (MLC) (xenic isolate C1, Experiment 1): 2500 µg/mL
- Minimum Inhibitory Concentration (MIC) (xenic isolate C1, Experiment 2): 310 µg/mL
- Minimum Lethal Concentration (MLC) (xenic isolate C1, Experiment 2): 2500 µg/mL
- Minimum Inhibitory Concentration (MIC) (xenic isolate C1, Experiment 3): 310 µg/mL
- Minimum Lethal Concentration (MLC) (xenic isolate C1, Experiment 3): 2500 µg/mL
- Minimum Inhibitory Concentration (MIC) (xenic isolate C2, Experiment 1): 630 µg/mL
- Minimum Lethal Concentration (MLC) (xenic isolate C2, Experiment 1): 2500 µg/mL
- Minimum Inhibitory Concentration (MIC) (xenic isolate C2, Experiment 2): 630 µg/mL
- Minimum Lethal Concentration (MLC) (xenic isolate C2, Experiment 2): 2500 µg/mL
- Minimum Inhibitory Concentration (MIC) (xenic isolate C2, Experiment 3): 310 µg/mL
- Minimum Lethal Concentration (MLC) (xenic isolate C2, Experiment 3): 2500 µg/mL
- Minimum Inhibitory Concentration (MIC) (xenic isolate DA, Experiment 1): 630 µg/mL
- Minimum Lethal Concentration (MLC) (xenic isolate DA, Experiment 1): 2500 µg/mL
- Minimum Inhibitory Concentration (MIC) (xenic isolate DA, Experiment 2): 630 µg/mL
- Minimum Lethal Concentration (MLC) (xenic isolate DA, Experiment 2): 2500 µg/mL
- Minimum Inhibitory Concentration (MIC) (xenic isolate DA, Experiment 3): 630 µg/mL
- Minimum Lethal Concentration (MLC) (xenic isolate DA, Experiment 3): 2500 µg/mL
- Minimum Inhibitory Concentration (MIC) [19]: 160 µg/mL
- Minimum Lethal Concentration (MLC) [19]: 2500 µg/mL
- Minimum Inhibitory Concentration (MIC) [20]: 310 µg/mL
- Minimum Lethal Concentration (MLC) [20]: 2500 µg/mL
- Minimum Inhibitory Concentration (MIC) [21]: 310 µg/mL
- Minimum Lethal Concentration (MLC) [21]: 1250 µg/mL
- Minimum Inhibitory Concentration (MIC) (xenic isolate GS, Experiment 1): 630 µg/mL
- Minimum Lethal Concentration (MLC) (xenic isolate GS, Experiment 1): 2500 µg/mL
- Minimum Inhibitory Concentration (MIC) (xenic isolate GS, Experiment 2): 630 µg/mL
- Minimum Lethal Concentration (MLC) (xenic isolate GS, Experiment 2): 2500 µg/mL
- Minimum Inhibitory Concentration (MIC) (xenic isolate GS, Experiment 3): 310 µg/mL
- Minimum Lethal Concentration (MLC) (xenic isolate GS, Experiment 3): 2500 µg/mL
- Minimum Inhibitory Concentration (MIC) (xenic isolate MS, Experiment 1): 630 µg/mL
- Minimum Lethal Concentration (MLC) (xenic isolate MS, Experiment 1): 2500 µg/mL
- Minimum Inhibitory Concentration (MIC) (xenic isolate MS, Experiment 2): 630 µg/mL
- Minimum Lethal Concentration (MLC) (xenic isolate MS, Experiment 2): 1250 µg/mL
- Minimum Inhibitory Concentration (MIC) (xenic isolate MS, Experiment 3): 630 µg/mL
- Minimum Lethal Concentration (MLC) (xenic isolate MS, Experiment 3): 2500 µg/mL
- Minimum Inhibitory Concentration (MIC) [22]: 310 µg/mL
- Minimum Lethal Concentration (MLC) [22]: 2500 µg/mL
- Minimum Inhibitory Concentration (MIC) [23]: 160 µg/mL
- Minimum Lethal Concentration (MLC) [23]: 2500 µg/mL
- Minimum Inhibitory Concentration (MIC) (xenic isolate SI, Experiment 1): 630 µg/mL
- Minimum Lethal Concentration (MLC) (xenic isolate SI, Experiment 1): 2500 µg/mL
- Minimum Inhibitory Concentration (MIC) (xenic isolate SI, Experiment 3): 630 µg/mL
- Minimum Lethal Concentration (MLC) (xenic isolate SI, Experiment 3): 2500 µg/mL
- Minimum Inhibitory Concentration (MIC) [24]: 630 µg/mL
- Minimum Lethal Concentration (MLC) [24]: 2500 µg/mL
- Minimum Inhibitory Concentration (MIC) [25]: 630 µg/mL
- Minimum Lethal Concentration (MLC) [25]: 2500 µg/mL
- Minimum Inhibitory Concentration (MIC) [26]: 310 µg/mL
- Minimum Lethal Concentration (MLC) [26]: 2500 µg/mL
- Minimum Inhibitory Concentration (MIC) [27]: 630 µg/mL
- Minimum Lethal Concentration (MLC) [27]: 5000 µg/mL
- Minimum Inhibitory Concentration (MIC) [28]: 310 µg/mL
- Minimum Lethal Concentration (MLC) [28]: 5000 µg/mL
- Minimum Inhibitory Concentration (MIC) [29]: 160 µg/mL
- Minimum Lethal Concentration (MLC) [29]: 2500 µg/mL
- Minimum Inhibitory Concentration (MIC) (xenic isolate T4, Experiment 1): 310 µg/mL
- Minimum Lethal Concentration (MLC) (xenic isolate T4, Experiment 1): 2500 µg/mL
- Minimum Inhibitory Concentration (MIC) (xenic isolate T4, Experiment 2): 310 µg/mL
- Minimum Lethal Concentration (MLC) (xenic isolate T4, Experiment 2): 2500 µg/mL
- Minimum Inhibitory Concentration (MIC) (xenic isolate T4, Experiment 3): 160 µg/mL
- Minimum Lethal Concentration (MLC) (xenic isolate T4, Experiment 3): 2500 µg/mL
- Minimum Inhibitory Concentration (MIC) (xenic isolate T6, Experiment 1): 310 µg/mL
- Minimum Lethal Concentration (MLC) (xenic isolate T6, Experiment 1): 2500 µg/mL
- Minimum Inhibitory Concentration (MIC) (xenic isolate T6, Experiment 2): 630 µg/mL
- Minimum Lethal Concentration (MLC) (xenic isolate T6, Experiment 2): 2500 µg/mL
- Minimum Inhibitory Concentration (MIC) (xenic isolate T6, Experiment 3): 310 µg/mL
- Minimum Lethal Concentration (MLC) (xenic isolate T6, Experiment 3): 2500 µg/mL
- Minimum Inhibitory Concentration (MIC) [30]: 630 µg/mL
- Minimum Lethal Concentration (MLC) [30]: 2500 µg/mL
- Minimum Inhibitory Concentration (MIC) [31]: 1250 µg/mL
- Minimum Lethal Concentration (MLC) [31]: 2500 µg/mL
- Minimum Inhibitory Concentration (MIC) [32]: 630 µg/mL
- Minimum Lethal Concentration (MLC) [32]: 2500 µg/mL
- Minimum Inhibitory Concentration (MIC) [33]: 630 µg/mL
- Minimum Lethal Concentration (MLC) [33]: 2500 µg/mL
- Minimum Inhibitory Concentration (MIC) [34]: 310 µg/mL
- Minimum Lethal Concentration (MLC) [34]: 2500 µg/mL
